This data set deals with CCRIS mutagenicity, Ames/micronucleus/aberration tests. The data set is described as follows: CCRIS mutagenicity studies.

For 3 compounds, mutagenic call results are on record in PubChem BioAssay AID1259407 (Chemical Carcinogenesis Research Information System (CCRIS), 2018).

SMILES strings stand for the structures. Activity calls are given as the source filed them. How the calls were made is not given here.

As for `N#Cc1ccccc1`, the mutagenic call by setting is: (End Point: IN VITRO MICRONUCLEUS, Test System: CHINESE HAMSTER V79, Metabolic Activation: NONE) “active; positive”; (Test System: AMES SALMONELLA TYPHIMURIUM, Strain/Indicator: TA97, Metabolic Activation: HAMSTER, LIVER, S-9, AROCLOR 1254 (10 OR 30%), Method: PREINCUBATION) “inactive; negative”; (Test System: AMES SALMONELLA TYPHIMURIUM, Strain/Indicator: TA97, Metabolic Activation: NONE, Method: PREINCUBATION) “inactive; negative”; (Test System: AMES SALMONELLA TYPHIMURIUM, Strain/Indicator: TA97, Metabolic Activation: RAT, LIVER, S-9, AROCLOR 1254 (10 OR 30%), Method: PREINCUBATION) “inactive; negative”; (Test System: AMES SALMONELLA TYPHIMURIUM, Strain/Indicator: TA98, Metabolic Activation: HAMSTER, LIVER, S-9, AROCLOR 1254 (10 OR 30%), Method: PREINCUBATION) “inactive; negative”; (Test System: AMES SALMONELLA TYPHIMURIUM, Strain/Indicator: TA98, Metabolic Activation: HAMSTER, LIVER, S-9, AROCLOR 1254, Method: STANDARD PLATE) “inactive; negative”. Also, the mutagenic call reads like this: (Test System: AMES SALMONELLA TYPHIMURIUM, Strain/Indicator: TA98, Metabolic Activation: NONE, Method: PREINCUBATION) “inactive; negative”; (Test System: AMES SALMONELLA TYPHIMURIUM, Strain/Indicator: TA98, Metabolic Activation: NONE, Method: STANDARD PLATE) “inactive; negative”; (Test System: AMES SALMONELLA TYPHIMURIUM, Strain/Indicator: TA98, Metabolic Activation: RAT LIVER S-9, PHENOBARBITAL AND BETA-NAPHTHOFLAVONE, Method: PREINCUBATION) “inactive; negative”; (Test System: AMES SALMONELLA TYPHIMURIUM, Strain/Indicator: TA98, Metabolic Activation: RAT, LIVER, S-9, AROCLOR 1254 (10 OR 30%), Method: PREINCUBATION) “inactive; negative”; (Test System: AMES SALMONELLA TYPHIMURIUM, Strain/Indicator: TA98, Metabolic Activation: RAT, LIVER, S-9, AROCLOR 1254, Method: STANDARD PLATE) “inactive; negative”; (Test System: AMES SALMONELLA TYPHIMURIUM, Strain/Indicator: TA100, Metabolic Activation: HAMSTER, LIVER, S-9, AROCLOR 1254 (10 OR 30%), Method: PREINCUBATION) “inactive; negative”. In addition, the mutagenic call by setting is: (Test System: AMES SALMONELLA TYPHIMURIUM, Strain/Indicator: TA100, Metabolic Activation: HAMSTER, LIVER, S-9, AROCLOR 1254, Method: STANDARD PLATE) “inactive; negative”; (Test System: AMES SALMONELLA TYPHIMURIUM, Strain/Indicator: TA100, Metabolic Activation: NONE, Method: PREINCUBATION) “inactive; negative”; (Test System: AMES SALMONELLA TYPHIMURIUM, Strain/Indicator: TA100, Metabolic Activation: NONE, Method: STANDARD PLATE) “inactive; negative”; (Test System: AMES SALMONELLA TYPHIMURIUM, Strain/Indicator: TA100, Metabolic Activation: RAT LIVER S-9, PHENOBARBITAL AND BETA-NAPHTHOFLAVONE, Method: PREINCUBATION) “inactive; negative”; (Test System: AMES SALMONELLA TYPHIMURIUM, Strain/Indicator: TA100, Metabolic Activation: RAT, LIVER, S-9, AROCLOR 1254 (10 OR 30%), Method: PREINCUBATION) “inactive; negative”; (Test System: AMES SALMONELLA TYPHIMURIUM, Strain/Indicator: TA100, Metabolic Activation: RAT, LIVER, S-9, AROCLOR 1254, Method: STANDARD PLATE) “inactive; negative”. For the same compound, the mutagenic call was “inactive; negative” (Test System: AMES SALMONELLA TYPHIMURIUM, Strain/Indicator: TA1535, Metabolic Activation: HAMSTER, LIVER, S-9, AROCLOR 1254 (10 OR 30%), Method: PREINCUBATION); “inactive; negative” (Test System: AMES SALMONELLA TYPHIMURIUM, Strain/Indicator: TA1535, Metabolic Activation: HAMSTER, LIVER, S-9, AROCLOR 1254, Method: STANDARD PLATE); “inactive; negative” (Test System: AMES SALMONELLA TYPHIMURIUM, Strain/Indicator: TA1535, Metabolic Activation: NONE, Method: PREINCUBATION); “inactive; negative” (Test System: AMES SALMONELLA TYPHIMURIUM, Strain/Indicator: TA1535, Metabolic Activation: NONE, Method: STANDARD PLATE); “inactive; negative” (Test System: AMES SALMONELLA TYPHIMURIUM, Strain/Indicator: TA1535, Metabolic Activation: RAT LIVER S-9, PHENOBARBITAL AND BETA-NAPHTHOFLAVONE, Method: PREINCUBATION); “inactive; negative” (Test System: AMES SALMONELLA TYPHIMURIUM, Strain/Indicator: TA1535, Metabolic Activation: RAT, LIVER, S-9, AROCLOR 1254 (10 OR 30%), Method: PREINCUBATION). Also, the mutagenic call reads like this: (Test System: AMES SALMONELLA TYPHIMURIUM, Strain/Indicator: TA1535, Metabolic Activation: RAT, LIVER, S-9, AROCLOR 1254, Method: STANDARD PLATE) “inactive; negative”; (Test System: AMES SALMONELLA TYPHIMURIUM, Strain/Indicator: TA1537, Metabolic Activation: HAMSTER, LIVER, S-9, AROCLOR 1254, Method: STANDARD PLATE) “inactive; negative”; (Test System: AMES SALMONELLA TYPHIMURIUM, Strain/Indicator: TA1537, Metabolic Activation: NONE, Method: PREINCUBATION) “inactive; negative”; (Test System: AMES SALMONELLA TYPHIMURIUM, Strain/Indicator: TA1537, Metabolic Activation: NONE, Method: STANDARD PLATE) “inactive; negative”; (Test System: AMES SALMONELLA TYPHIMURIUM, Strain/Indicator: TA1537, Metabolic Activation: RAT LIVER S-9, PHENOBARBITAL AND BETA-NAPHTHOFLAVONE, Method: PREINCUBATION) “inactive; negative”; (Test System: AMES SALMONELLA TYPHIMURIUM, Strain/Indicator: TA1537, Metabolic Activation: RAT, LIVER, S-9, AROCLOR 1254, Method: STANDARD PLATE) “inactive; negative”. Besides, the mutagenic call (Test System: AMES SALMONELLA TYPHIMURIUM, Strain/Indicator: TA1538, Metabolic Activation: HAMSTER, LIVER, S-9, AROCLOR 1254, Method: STANDARD PLATE) is “inactive; negative”; the mutagenic call (Test System: AMES SALMONELLA TYPHIMURIUM, Strain/Indicator: TA1538, Metabolic Activation: NONE, Method: STANDARD PLATE) was “inactive; negative”; the mutagenic call (Test System: AMES SALMONELLA TYPHIMURIUM, Strain/Indicator: TA1538, Metabolic Activation: RAT, LIVER, S-9, AROCLOR 1254, Method: STANDARD PLATE) is “inactive; negative”; the mutagenic call (Test System: E. COLI, Strain/Indicator: WP2UVRA, Metabolic Activation: NONE, Method: PREINCUBATION) is “inactive; negative”; the mutagenic call (Test System: E. COLI, Strain/Indicator: WP2UVRA, Metabolic Activation: RAT LIVER S-9, PHENOBARBITAL AND BETA-NAPHTHOFLAVONE, Method: PREINCUBATION) was “inactive; negative”; the mutagenic call (Test System: MOUSE LYMPHOMA, Strain/Indicator: L5178Y (TK+/TK-), Metabolic Activation: NONE, Method: SUSPENSION/PLATE) was “inactive; negative. reevaluation of results: negative”. Moreover, the mutagenic call (Test System: MOUSE LYMPHOMA, Strain/Indicator: L5178Y (TK+/TK-), Metabolic Activation: RAT, LIVER, S-9, AROCLOR 1254, Method: SUSPENSION/PLATE) was “inactive; negative. reevaluation of results: negative”.

In the case of `CC1(C)COCN1`, the mutagenic call by setting is: (End Point: In vitro chromosomal aberrations, Test System: Chinese hamster ovary (CHO) cells, Metabolic Activation: None) “active; positive”; (End Point: In vitro chromosomal aberrations, Test System: Chinese hamster ovary (CHO) cells, Metabolic Activation: S-9) “active; positive”; (Test System: Mouse lymphoma, Strain/Indicator: L5178Y (TK+/TK-), Metabolic Activation: None, Method: Not specified by DPR) “active; positive (purity 78%)”; (Test System: Mouse lymphoma, Strain/Indicator: L5178Y (TK+/TK-), Metabolic Activation: S-9, Method: Not specified by DPR) “active; positive (purity 78%)”.

On to `O=C(O)/C=C/C(=O)CC(=O)CC(=O)O`, for which the mutagenic call (Test System: CHINESE HAMSTER V-79, Strain/Indicator: V-79 (HGPRT)/6-THIOGUANINE, Metabolic Activation: NONE) is “active; positive”.
